# According to patent US20110009265A1, “Herbicidal Compositions Comprising Pyroxasulfone” (BASF SE, priority 2008, published 2011):
# Read-outs that look alike come from different tables or passages of the source.
# What was measured:
# [1] = test system: Avena fatua (AVEFA); assay: greenhouse pre-emergence herbicidal activity; type: in vivo; conditions: 50 g ai/ha, read-out: observed % activity
# Text: (§1) For the pre-emergence treatment, directly after sowing the active compounds, which had been suspended or emulsified in water, were applied by means of finely distributed nozzles. The containers were irrigated gently to promote germination and growth and subsequently covered with transparent plastic hoods until plant had rooted. This cover caused uniform germination of the tests plants, unless this was adversely affected by active compounds.
# (§2) The respective herbicides A and/or safener were formulated as 10% by weight strength suspension concentrate and introduced to the spray liquor with the amount of solvent system used for applying the active compound. Herbicide B and/or safener were used as commercially available formulations and introduced to the spray liquor with the amount of solvent system used for applying the active compound. In the examples, the solvent used was water.
# (§3) Pendimethalin was used as a commercial aqueous suspension concentrate having an active ingredient concentration of 400 g/l.
# (§4) The test period extended over 21 days. During this time, the plants were tended, and their response to the treatments with active compound was evaluated.
# (§5) The evaluation for the damage caused by the chemical compositions was carried out using a scale from 0 to 100%, compared to the untreated control plants. Here, 0 means no damage and 100 means complete destruction of the plants.
# (§6) The value E, which is to be expected if the activity of the individual compounds is just additive, was calculated using the method of S. R. Colby (1967) “Calculating synergistic and antagonistic responses of herbicide combinations”, Weeds 15, p. 22 ff.
# (§7) where • X=effect in percent using herbicide A at an application rate a; • Y=effect in percent using herbicide B at an application rate b; • E=expected effect (in %) of A+B at application rates a+b.
# (§8) If the value observed in this manner is higher than the value E calculated according to Colby, a synergistic effect is present.
# [2] = test system: Bromus inermis (BROIN); assay: greenhouse pre-emergence herbicidal activity; type: in vivo; conditions: read-out: observed % activity; for inhibition at 6.25 g/ha: 6.25 g ai/ha; for inhibition at 12.5 g/ha: 12.5 g ai/ha; for inhibition at 25 g/ha: 25 g ai/ha; for inhibition at 50 g/ha: 50 g ai/ha
# Text: as §1, §2, §3, §4, §5, §6, §7, §8
# [3] = test system: Capsella bursa-pastoris (CAPBP); assay: greenhouse pre-emergence herbicidal activity; type: in vivo; conditions: read-out: observed % activity; for inhibition at 25 g/ha: 25 g ai/ha; for inhibition at 50 g/ha: 50 g ai/ha
# Text: as §1, §2, §3, §4, §5, §6, §7, §8
# [4] = test system: Galium aparine (GALAP); assay: greenhouse pre-emergence herbicidal activity; type: in vivo; conditions: read-out: observed % activity; for inhibition at 6.25 g/ha: 6.25 g ai/ha; for inhibition at 25 g/ha: 25 g ai/ha; for inhibition at 50 g/ha: 50 g ai/ha
# Text: as §1, §2, §3, §4, §5, §6, §7, §8
# [5] = test system: Phalaris canariensis (PHACA); assay: greenhouse pre-emergence herbicidal activity; type: in vivo; conditions: 6.25 g ai/ha, read-out: observed % activity
# Text: as §1, §2, §3, §4, §5, §6, §7, §8
# [6] = test system: Thlaspi arvense (THLAR); assay: greenhouse pre-emergence herbicidal activity; type: in vivo; conditions: read-out: observed % activity; for inhibition at 12.5 g/ha: 12.5 g ai/ha; for inhibition at 50 g/ha: 50 g ai/ha
# Text: as §1, §2, §3, §4, §5, §6, §7, §8
# [7] = test system: Veronica persica (VERPE); assay: greenhouse pre-emergence herbicidal activity; type: in vivo; conditions: read-out: observed % activity; for inhibition at 6.25 g/ha: 6.25 g ai/ha; for inhibition at 12.5 g/ha: 12.5 g ai/ha; for inhibition at 25 g/ha: 25 g ai/ha; for inhibition at 50 g/ha: 50 g ai/ha
# Text: as §1, §2, §3, §4, §5, §6, §7, §8
# [8] = test system: Alopecurus myosuroides (ALOMY); assay: greenhouse post-emergence herbicidal activity; type: in vivo; conditions: 25 g ai/ha; for inhibition at 25 g/ha: Alopecurus myosuroides, read-out: observed % activity
# Text: (§9) For the post-emergence treatment, the test plants were first grown to a height of 3 to 20 cm, depending on the plant habit, and only then treated. Here, the herbicidal compositions were suspended or emulsified in water as distribution medium and sprayed using finely distributing nozzles.
# as §2, §3, §4, §5, §6, §7, §8
# [9] = test system: Amaranthus retroflexus (AMARE); assay: greenhouse post-emergence herbicidal activity; type: in vivo; conditions: 13 g ai/ha, 20 DAT
# Text: as §9, §2, §3, §4, §5, §6, §7, §8
# [10] = test system: Apera spica-venti (APESV); assay: greenhouse post-emergence herbicidal activity; type: in vivo; conditions: 50 g ai/ha, 20 DAT
# Text: as §9, §2, §3, §4, §5, §6, §7, §8
# [11] = test system: Capsella bursa-pastoris (CAPBP); assay: greenhouse post-emergence herbicidal activity; type: in vivo; conditions: 25 g ai/ha, 20 DAT
# Text: as §9, §2, §3, §4, §5, §6, §7, §8
# [12] = test system: Lamium purpureum (LAMPU); assay: greenhouse post-emergence herbicidal activity; type: in vivo; conditions: 50 g ai/ha, 20 DAT
# Text: as §9, §2, §3, §4, §5, §6, §7, §8
# [13] = test system: Matricaria inermis (MATIN); assay: greenhouse post-emergence herbicidal activity; type: in vivo; conditions: 50 g ai/ha, read-out: observed % activity
# Text: as §9, §2, §3, §4, §5, §6, §7, §8
# [14] = test system: Stellaria media (STEME); assay: greenhouse post-emergence herbicidal activity; type: in vivo; conditions: 20 DAT
# Text: as §9, §2, §3, §4, §5, §6, §7, §8
# [15] = test system: Thlaspi arvense (THLAR); assay: greenhouse post-emergence herbicidal activity; type: in vivo; conditions: for inhibition at 100 g/ha: Thlaspi arvense, read-out: observed % activity
# Text: as §9, §2, §3, §4, §5, §6, §7, §8
# [16] = test system: Viola arvensis (VIOAR); assay: greenhouse post-emergence herbicidal activity; type: in vivo; conditions: 25 g ai/ha, 20 DAT
# Text: as §9, §2, §3, §4, §5, §6, §7, §8
# [17] = test system: harmful plants; conditions: known from Y. Yamaji et al., 2006; cited from earlier work
structure (smiles),measurement,setting,value
"Cn1nc(C(F)(F)F)c(CS(=O)(=O)C2=NOC(C)(C)C2)c1OC(F)F [pyroxasulfone, 3-[5-(difluoromethoxy)-1-methyl-3-(trifluoromethyl)pyrazol-4-ylmethylsulfonyl]-4,5-dihydro-5,5-dimethyl-1,2-oxazole]",inhibition at 50 g/ha,"[1]; 192 h, 8 DAT",70%
same,inhibition at 50 g/ha,"[1]; 480 h, 20 DAT",85%
same,inhibition at 6.25 g/ha,"[2]; 192 h, 8 DAT",40%
same,inhibition at 12.5 g/ha,"[2]; 192 h, 8 DAT",50%
same,inhibition at 25 g/ha,"[2]; 192 h, 8 DAT",50%
same,inhibition at 50 g/ha,"[2]; 192 h, 8 DAT",60%
same,inhibition at 6.25 g/ha,"[2]; 480 h, 20 DAT",35%
same,inhibition at 12.5 g/ha,"[2]; 480 h, 20 DAT",60%
same,inhibition at 25 g/ha,"[2]; 480 h, 20 DAT",60%
same,inhibition at 50 g/ha,"[2]; 480 h, 20 DAT",75%
same,inhibition at 25 g/ha,"[3]; 192 h, 8 DAT",60%
same,inhibition at 50 g/ha,"[3]; 192 h, 8 DAT",60%
same,inhibition at 25 g/ha,"[3]; 480 h, 20 DAT",95%
same,inhibition at 50 g/ha,"[3]; 480 h, 20 DAT",95%
same,inhibition at 6.25 g/ha,"[4]; 192 h, 8 DAT",30%
same,inhibition at 25 g/ha,"[4]; 192 h, 8 DAT",60%
same,inhibition at 50 g/ha,"[4]; 192 h, 8 DAT",60%
same,inhibition at 6.25 g/ha,"[4]; 480 h, 20 DAT",20%
same,inhibition at 25 g/ha,"[4]; 480 h, 20 DAT",75%
same,inhibition at 50 g/ha,"[4]; 480 h, 20 DAT",80%
same,inhibition at 6.25 g/ha,"[5]; 192 h, 8 DAT",40%
same,inhibition at 6.25 g/ha,"[5]; 480 h, 20 DAT",40%
same,inhibition at 12.5 g/ha,"[6]; 192 h, 8 DAT",40%
same,inhibition at 50 g/ha,"[6]; 192 h, 8 DAT",60%
same,inhibition at 12.5 g/ha,"[6]; 480 h, 20 DAT",30%
same,inhibition at 50 g/ha,"[6]; 480 h, 20 DAT",80%
same,inhibition at 6.25 g/ha,"[7]; 192 h, 8 DAT",45%
same,inhibition at 12.5 g/ha,"[7]; 192 h, 8 DAT",60%
same,inhibition at 25 g/ha,"[7]; 192 h, 8 DAT",60%
same,inhibition at 50 g/ha,"[7]; 192 h, 8 DAT",60%
same,inhibition at 6.25 g/ha,"[7]; 480 h, 20 DAT",70%
same,inhibition at 12.5 g/ha,"[7]; 480 h, 20 DAT",90%
same,inhibition at 25 g/ha,"[7]; 480 h, 20 DAT",85%
same,inhibition at 50 g/ha,"[7]; 480 h, 20 DAT",90%
same,observed activity in % destruction 20 days after treatment,[8]; 20 DAT,65%
same,inhibition at 25 g/ha,"[8]; 168 h, 7 DAT",25%
same,inhibition at 25 g/ha,"[8]; 480 h, 20 DAT",65%
same,observed activity in % destruction 20 days after treatment,[9],45%
same,observed activity in % destruction 20 days after treatment,[10],85%
same,observed activity in % destruction 20 days after treatment,[11],35%
same,observed activity in % destruction 20 days after treatment,[12],70%
same,inhibition at 50 g/ha,"[13]; 168 h, 7 DAT",40%
same,inhibition at 50 g/ha,"[13]; 480 h, 20 DAT",0%
same,observed activity in % destruction 20 days after treatment,[14]; 50 g ai/ha,85%
same,observed activity in % destruction 20 days after treatment,[14]; 100 g ai/ha,95%
same,observed activity in % destruction 20 days after treatment,"[15]; 25 g ai/ha, 20 DAT",50%
same,observed activity in % destruction 20 days after treatment,"[15]; 100 g ai/ha, 20 DAT",80%
same,inhibition at 100 g/ha,"[15]; 168 h, 100 g ai/ha, 7 DAT",70%
same,inhibition at 100 g/ha,"[15]; 480 h, 100 g ai/ha, 20 DAT",80%
same,observed activity in % destruction 20 days after treatment,[16],0%
same,post-emergence activity,[17],only poor post-emergence activity
